The values that follow come from patent publication US20260242419A1, “A CYCLIC PEPTIDE FOR TRAPPING INTERLEUKIN-1 BETA” (Merck Sharp & Dohme LLC, priority 2023, published 2026).

Non-standard residues stand in square brackets, D forms with d. Residues, ends and D or L forms follow the SMILES beside them. dPro(4R-(4-pyridylmethyl)) = O=C(O)[C@H]1C[C@@H](Cc2ccncc2)CN1; Trp(βS-Me,4-F) = C[C@@H](c1c[nH]c2cccc(F)c12)[C@H](N)C(=O)O; Bip(4'-CONH2) = NC(=O)c1ccc(-c2ccc(C[C@H](N)C(=O)O)cc2)cc1; Bip(4'-COOH) = N[C@@H](Cc1ccc(-c2ccc(C(=O)O)cc2)cc1)C(=O)O; Ala(1-bicyclo(1.1.1)pentyl) = N[C@@H](CC12CC(C1)C2)C(=O)O; dPro(3S-(4-F-Bn)) = O=C(O)[C@@H]1NCC[C@@H]1Cc1ccc(F)cc1; Ala(pyrimidin-5-yl) = N[C@@H](Cc1cncnc1)C(=O)O; Phe(4-CONH2) = NC(=O)c1ccc(C[C@H](N)C(=O)O)cc1; Phe(4-COOH) = N[C@@H](Cc1ccc(C(=O)O)cc1)C(=O)O; Pro(cis-4-F) = O=C(O)[C@@H]1C[C@H](F)CN1; Ala(4-THP) = N[C@@H](CC1CCOCC1)C(=O)O; AEF = NCCOc1ccc(C[C@H](N)C(=O)O)cc1; cisHyp = O=C(O)[C@@H]1C[C@H](O)CN1; 4Pal = N[C@@H](Cc1ccncc1)C(=O)O; αMeD = C[C@](N)(CC(=O)O)C(=O)O; d(αMeS) = C[C@@](N)(CO)C(=O)O; NMeDab = CN[C@@H](CCN)C(=O)O; Dab = NCC[C@H](N)C(=O)O; Aib = CC(C)(N)C(=O)O; Sar = CNCC(=O)O

The experiment deals with T1, IL-1β (Homo sapiens, UniProt P01584).
T1 construct: purchased BioLegend 579404
T1 sequence (P01584 117-269): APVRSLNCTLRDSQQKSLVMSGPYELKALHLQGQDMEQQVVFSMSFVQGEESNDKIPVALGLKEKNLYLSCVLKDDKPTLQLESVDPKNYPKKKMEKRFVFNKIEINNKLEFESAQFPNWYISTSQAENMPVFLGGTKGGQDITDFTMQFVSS
Description: IL-6 assay in MRC5 cells: inhibition of IL-1β induced IL-6 secretion (AlphaLISA). The class given is cell-based. The conditions noted are these: inhibition of IL-1β induced IL-6 secretion in MRC5 cells; read-out: MRC5 IC50. In outline:
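Compound was pre-incubated 1 h at ambient temperature with recombinant human IL-1β at 2λ EC80 before adding human lung fibroblast MRC5 cells (3000/well) in EMEM with 0.025% BSA. After overnight culture at 37 °C, 5% CO2, secreted IL-6 in conditioned medium was measured by AlphaLISA; IC50 from 4-parameter logistic fits.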
In general terms: Bead proximity is the source of the signal in Alpha formats.
The term IC50 denotes the concentration that inhibits the measured activity by half. For `C[C@@H](c1c[nH]c2cccc(F)c12)[C@@H]1NC(=O)[C@@H]2C[C@H](F)CN2C(=O)CNC(=O)[C@H](Cc2ccc(C(=O)O)cc2)NC(=O)[C@H](Cc2ccncc2)NC(=O)[C@H](Cc2ccc(-c3ccc(C(=O)O)cc3)cc2)NC(=O)[C@H]2C[C@@H](Cc3ccncc3)CN2C(=O)CN(C)C(=O)[C@H](CCN)NC(=O)[C@H](CCC(N)=O)NC(=O)[C@H](Cc2cncnc2)NC(=O)C(C)(C)NC(=O)[C@H](Cc2c[nH]c3ccccc23)NC(=O)[C@H](CO)NC(=O)C(C)(C)NC1=O` [Example 205] (cyclo([Bip(4'-COOH)][4Pal][Phe(4-COOH)]G[Pro(cis-4-F)][Trp(βS-Me,4-F)][Aib]SW[Aib][Ala(pyrimidin-5-yl)]Q[Dab][Sar][dPro(4R-(4-pyridylmethyl))])), the half-maximal inhibitory concentration (IC50) is 0.028 nM.

For `C[C@@H](c1c[nH]c2cccc(F)c12)[C@@H]1NC(=O)[C@@H]2C[C@H](F)CN2C(=O)CNC(=O)[C@H](Cc2ccc(C(=O)O)cc2)NC(=O)[C@H](Cc2ccncc2)NC(=O)[C@H](Cc2ccc(-c3ccc(C(=O)O)cc3)cc2)NC(=O)[C@H]2C[C@@H](Cc3ccncc3)CN2C(=O)CN(C)C(=O)[C@H](CCN)NC(=O)[C@H](CCC(N)=O)NC(=O)[C@H](Cc2cncnc2)NC(=O)[C@@](C)(CO)NC(=O)[C@H](Cc2c[nH]c3ccccc23)NC(=O)[C@H](CO)NC(=O)C(C)(C)NC1=O` [Example 206] (cyclo([Bip(4'-COOH)][4Pal][Phe(4-COOH)]G[Pro(cis-4-F)][Trp(βS-Me,4-F)][Aib]SW[d(αMeS)][Ala(pyrimidin-5-yl)]Q[Dab][Sar][dPro(4R-(4-pyridylmethyl))])), the IC50 stood at 0.022 nM.

On to `C[C@@H](c1c[nH]c2cccc(F)c12)[C@@H]1NC(=O)[C@@H]2C[C@H](O)CN2C(=O)CNC(=O)[C@H](Cc2ccc(C(=O)O)cc2)NC(=O)[C@H](Cc2ccncc2)NC(=O)[C@H](Cc2ccc(-c3ccc(C(=O)O)cc3)cc2)NC(=O)[C@H]2C[C@@H](Cc3ccncc3)CN2C(=O)CN(C)C(=O)[C@H](CCN)NC(=O)[C@H](CCC(N)=O)NC(=O)[C@H](CC2CCOCC2)NC(=O)[C@@](C)(CO)NC(=O)[C@H](Cc2c[nH]c3ccccc23)NC(=O)[C@H](CO)NC(=O)C(C)(C)NC1=O` [Example 207] (cyclo([Bip(4'-COOH)][4Pal][Phe(4-COOH)]G[cisHyp][Trp(βS-Me,4-F)][Aib]SW[d(αMeS)][Ala(4-THP)]Q[Dab][Sar][dPro(4R-(4-pyridylmethyl))])), for which the IC50 turned out to be 0.044 nM.

`C[C@@H](c1c[nH]c2cccc(F)c12)[C@@H]1NC(=O)[C@@H]2C[C@H](F)CN2C(=O)CNC(=O)[C@H](Cc2ccc(C(=O)O)cc2)NC(=O)[C@H](Cc2ccncc2)NC(=O)[C@H](Cc2ccc(-c3ccc(C(=O)O)cc3)cc2)NC(=O)[C@H]2C[C@@H](Cc3ccncc3)CN2C(=O)CN(C)C(=O)[C@H](CCN)NC(=O)[C@H](CCC(N)=O)NC(=O)[C@H](CC2CCOCC2)NC(=O)[C@](C)(CC(=O)O)NC(=O)[C@H](Cc2c[nH]c3ccccc23)NC(=O)[C@H](CO)NC(=O)C(C)(C)NC1=O` [Example 208] (cyclo([Bip(4'-COOH)][4Pal][Phe(4-COOH)]G[Pro(cis-4-F)][Trp(βS-Me,4-F)][Aib]SW[αMeD][Ala(4-THP)]Q[Dab][Sar][dPro(4R-(4-pyridylmethyl))])): the IC50 turned out to be 0.015 nM.

Take `C[C@@H](c1c[nH]c2cccc(F)c12)[C@@H]1NC(=O)[C@@H]2C[C@H](O)CN2C(=O)CNC(=O)[C@H](Cc2ccc(C(=O)O)cc2)NC(=O)[C@H](Cc2ccncc2)NC(=O)[C@H](Cc2ccc(-c3ccc(C(=O)O)cc3)cc2)NC(=O)[C@H]2C[C@@H](Cc3ccncc3)CN2C(=O)CN(C)C(=O)[C@H](CCN)NC(=O)[C@H](CCC(N)=O)NC(=O)[C@H](Cc2cncnc2)NC(=O)[C@](C)(CC(=O)O)NC(=O)[C@H](Cc2c[nH]c3ccccc23)NC(=O)[C@H](CO)NC(=O)C(C)(C)NC1=O` [Example 209] (cyclo([Bip(4'-COOH)][4Pal][Phe(4-COOH)]G[cisHyp][Trp(βS-Me,4-F)][Aib]SW[αMeD][Ala(pyrimidin-5-yl)]Q[Dab][Sar][dPro(4R-(4-pyridylmethyl))])): the IC50 came out at 0.034 nM.

As to `C[C@@H](c1c[nH]c2cccc(F)c12)[C@@H]1NC(=O)[C@@H]2C[C@H](O)CN2C(=O)CNC(=O)[C@H](Cc2ccc(C(=O)O)cc2)NC(=O)[C@H](Cc2ccncc2)NC(=O)[C@H](Cc2ccc(-c3ccc(C(=O)O)cc3)cc2)NC(=O)[C@H]2C[C@@H](Cc3ccncc3)CN2C(=O)CN(C)C(=O)[C@H](CCN)NC(=O)[C@H](CCC(N)=O)NC(=O)[C@H](CC2CCOCC2)NC(=O)[C@](C)(CC(=O)O)NC(=O)[C@H](Cc2c[nH]c3ccccc23)NC(=O)[C@H](CO)NC(=O)C(C)(C)NC1=O` [Example 210] (cyclo([Bip(4'-COOH)][4Pal][Phe(4-COOH)]G[cisHyp][Trp(βS-Me,4-F)][Aib]SW[αMeD][Ala(4-THP)]Q[Dab][Sar][dPro(4R-(4-pyridylmethyl))])), the half-maximal inhibitory concentration (IC50) was 0.029 nM.

As to `C[C@@H](c1c[nH]c2cccc(F)c12)[C@@H]1NC(=O)[C@@H]2C[C@H](F)CN2C(=O)CNC(=O)[C@H](Cc2ccc(C(=O)O)cc2)NC(=O)[C@H](Cc2ccncc2)NC(=O)[C@H](Cc2ccc(-c3ccc(C(=O)O)cc3)cc2)NC(=O)[C@H]2C[C@@H](Cc3ccncc3)CN2C(=O)CNC(=O)[C@H](CCN)NC(=O)[C@H](CCC(N)=O)NC(=O)[C@H](CC2CCOCC2)NC(=O)C(C)(C)NC(=O)[C@H](Cc2c[nH]c3ccccc23)NC(=O)[C@H](CO)NC(=O)C(C)(C)NC1=O` [Example 211] (cyclo([Bip(4'-COOH)][4Pal][Phe(4-COOH)]G[Pro(cis-4-F)][Trp(βS-Me,4-F)][Aib]SW[Aib][Ala(4-THP)]Q[Dab]G[dPro(4R-(4-pyridylmethyl))])), the IC50 stood at 0.019 nM.

Consider `C[C@@H](c1c[nH]c2cccc(F)c12)[C@@H]1NC(=O)[C@@H]2C[C@H](O)CN2C(=O)CNC(=O)[C@H](Cc2ccc(C(=O)O)cc2)NC(=O)[C@H](Cc2ccncc2)NC(=O)[C@H](Cc2ccc(-c3ccc(C(=O)O)cc3)cc2)NC(=O)[C@H]2C[C@@H](Cc3ccncc3)CN2C(=O)CNC(=O)[C@H](CCN)NC(=O)[C@H](CCC(N)=O)NC(=O)[C@H](CC2CCOCC2)NC(=O)C(C)(C)NC(=O)[C@H](Cc2c[nH]c3ccccc23)NC(=O)[C@H](CO)NC(=O)C(C)(C)NC1=O` [Example 212] (cyclo([Bip(4'-COOH)][4Pal][Phe(4-COOH)]G[cisHyp][Trp(βS-Me,4-F)][Aib]SW[Aib][Ala(4-THP)]Q[Dab]G[dPro(4R-(4-pyridylmethyl))])), for which the IC50 is 0.029 nM.

Regarding `C[C@@H](c1c[nH]c2cccc(F)c12)[C@@H]1NC(=O)[C@@H]2C[C@H](O)CN2C(=O)CNC(=O)[C@H](Cc2ccc(C(=O)O)cc2)NC(=O)[C@H](Cc2ccncc2)NC(=O)[C@H](Cc2ccc(-c3ccc(C(=O)O)cc3)cc2)NC(=O)[C@H]2C[C@@H](Cc3ccncc3)CN2C(=O)CNC(=O)[C@H](CCN)NC(=O)[C@H](CCC(N)=O)NC(=O)[C@H](CC2CCOCC2)NC(=O)[C@@](C)(CO)NC(=O)[C@H](Cc2c[nH]c3ccccc23)NC(=O)[C@H](CO)NC(=O)C(C)(C)NC1=O` [Example 213] (cyclo([Bip(4'-COOH)][4Pal][Phe(4-COOH)]G[cisHyp][Trp(βS-Me,4-F)][Aib]SW[d(αMeS)][Ala(4-THP)]Q[Dab]G[dPro(4R-(4-pyridylmethyl))])), the half-inhibitory concentration (IC50) is 0.021 nM.

On to `C[C@@H](c1c[nH]c2cccc(F)c12)[C@@H]1NC(=O)[C@@H]2C[C@H](F)CN2C(=O)CNC(=O)[C@H](Cc2ccc(C(=O)O)cc2)NC(=O)[C@H](Cc2ccncc2)NC(=O)[C@H](Cc2ccc(-c3ccc(C(N)=O)cc3)cc2)NC(=O)[C@H]2C[C@@H](Cc3ccncc3)CN2C(=O)CNC(=O)[C@H](CCN)NC(=O)[C@H](CCC(N)=O)NC(=O)[C@H](CC2CCOCC2)NC(=O)[C@@](C)(CO)NC(=O)[C@H](Cc2c[nH]c3ccccc23)NC(=O)[C@H](CO)NC(=O)C(C)(C)NC1=O` [Example 215] (cyclo([Bip(4'-CONH2)][4Pal][Phe(4-COOH)]G[Pro(cis-4-F)][Trp(βS-Me,4-F)][Aib]SW[d(αMeS)][Ala(4-THP)]Q[Dab]G[dPro(4R-(4-pyridylmethyl))])), for which the half-inhibitory concentration (IC50) is 0.01 nM.

With `C[C@@H](c1c[nH]c2cccc(F)c12)[C@@H]1NC(=O)[C@@H]2C[C@H](F)CN2C(=O)CNC(=O)[C@H](Cc2ccc(C(=O)O)cc2)NC(=O)[C@H](CC23CC(C2)C3)NC(=O)[C@H](Cc2ccc(-c3ccc(C(N)=O)cc3)cc2)NC(=O)[C@H]2[C@@H](Cc3ccc(F)cc3)CCN2C(=O)CNC(=O)[C@H](CCN)NC(=O)[C@H](CCC(N)=O)NC(=O)[C@H](CC2CCOCC2)NC(=O)[C@@](C)(CO)NC(=O)[C@H](Cc2c[nH]c3ccccc23)NC(=O)[C@H](CO)NC(=O)C(C)(C)NC1=O` [Example 216] (cyclo([Bip(4'-CONH2)][Ala(1-bicyclo(1.1.1)pentyl)][Phe(4-COOH)]G[Pro(cis-4-F)][Trp(βS-Me,4-F)][Aib]SW[d(αMeS)][Ala(4-THP)]Q[Dab]G[dPro(3S-(4-F-Bn))])), the IC50 came out at 0.008 nM.

On to `CC(=O)NCCOc1ccc(C[C@@H]2NC(=O)[C@H]3C[C@@H](Cc4ccncc4)CN3C(=O)CNC(=O)[C@H](CCN)N(C)C(=O)[C@H](CCC(N)=O)NC(=O)[C@H](Cc3cncnc3)NC(=O)C(C)(C)NC(=O)[C@H](Cc3c[nH]c4ccccc34)NC(=O)[C@H](CO)NC(=O)C(C)(C)NC(=O)[C@H]([C@@H](C)c3c[nH]c4cccc(F)c34)NC(=O)[C@@H]3C[C@H](F)CN3C(=O)CNC(=O)[C@H](Cc3ccc(C(N)=O)cc3)NC(=O)[C@H](Cc3ccncc3)NC2=O)cc1` [Example 218] (cyclo([4Pal][Phe(4-CONH2)]G[Pro(cis-4-F)][Trp(βS-Me,4-F)][Aib]SW[Aib][Ala(pyrimidin-5-yl)]Q[NMeDab]G[dPro(4R-(4-pyridylmethyl))][AEF](Ac))), for which the IC50 was determined as 0.036 nM.
